Laboratory results as given in article PMC7066245 (Scientific Reports, 2020).
Read-outs that look alike come from different tables or passages of the source.

Legend:
[1] = tested on: THP1 acute monocytic leukemia cells; assay: cells; type: cell-based, human; settings: read-out: IC50 THP1
[2] = tested on: HL60 promyelocytic leukemia cells; assay: cells; type: cell-based, human; settings: read-out: IC50 HL60
[3] = tested on: RPMI8226 myeloma cancer cells; assay: cells; type: cell-based, human; settings: read-out: IC50 RPMI8226
THP1 cells [4] = type: cell-based, human; set-up: concentration or dose not given beside the values
RPMI8226 cells [5] = type: cell-based, human
THP1 cells [6] = assay: annexin V/propidium iodide apoptosis assay, THP1; type: cell-based, human; settings: THP1, 48 h, 0.3 μM, annexin V/PI
Text: (§1) Double staining of cells with Annexin V and propidium iodide (PI) was used according to the protocol described in our previous article. This method is a useful tool for distinguishing viable cells (unstained with either fluorochrome) from early apoptotic cells (stained only with Annexin V), late apoptotic (stained with Annexin V and propidium iodide) and necrotic (dead) cells (stained only with PI).
(§2) Briefly, 5 × 10^5 control and drug treated cells were washed with cold PBS and resuspended in 500 μl binding buffer (delivered from producer) that contained 5 μl of Annexin V fluorescein isothiocyanate (FITC), 5 μl of PI and stained for 15 minutes in room temperature. Finally, at least 10^4 cells were analyzed for FITC and PI fluorescence (Ex ~488 nm; Em ~530 nm) using a flow cytometer (LSR II, Becton Dickinson). The cells stained with the annexin V/propidium iodide mixture were then visualized using fluorescence microscopy (Olympus IX70, Japan), magnification × 200.

[7] = tested on: normal peripheral blood-derived mononuclear cells (PBMC); assay: cells; type: cell-based; settings: read-out: IC50 PBMC
[8] = tested on: intracellular calcium (Ca2+) in HL60 cells; assay: intracellular calcium measurement (Fluo-4-NW), HL60; type: cell-based, human; settings: HL60, IC50 dose
Description: (§3) Intracellular calcium level was determined using the fluorescent probe Fluo-4NW according to the protocol described in our previous article. After entering the cell, Fluo-4NW is converted by cytosolic hydrolases to the active form, having the possibility of binding of calcium ions. As a result of joining of calcium ions, the probe emits fluorescence (λem = 538 nm) after excitation with light of wavelength 485 nm.
(§4) Cells were cultured and treated with investigated compounds on Petri dishes. Next, the cells were plated in 96-well black fluorimetric plates (2 × 10^4 cells/well). The growth medium was removed and the cells were washed with PBS in order to eliminate sources of baseline fluorescence. Finally a dye loading solution (Fluo-4-NW dye, 4-[(Dipropylamino)sulfonyl] benzoic acid (Probenecid) - used to inhibit extrusion of the indicator out of the cell by organic anion transporters, Hanks’ balanced salt solution (HBSS), 20 mM N-(2- hydroxyethyl)piperazine-N’-(2-ethanesulfonic acid) buffer solution (HEPES)) was added in a volume of 100 μl per well and incubated for 30 min in the total darkness at 37 °C, and then for next 30 min. at room temperature. The measurement was done on Fluoroskan Ascent FL microplate reader (Labsystems, Sweden) using 494 nm excitation and 516 nm emission wavelengths.

[9] = tested on: caspase-3/-7 in RPMI8226 cells; type: cell-based, human
[10] = tested on: caspase-3/-7 in THP1 cells; type: cell-based, human
[11] = tested on: caspase-3/-7 in HL60 cells; type: cell-based, human
[12] = tested on: intracellular calcium (Ca2+) in THP1 cells; assay: intracellular calcium measurement (Fluo-4-NW), THP1; type: cell-based, human; settings: THP1, IC50 dose, 4 h
Description: as §3, §4

HL60 cells = assay: annexin V/propidium iodide apoptosis assay, HL60; type: cell-based, human; settings: HL60, 48 h, 0.7 μM, annexin V/PI
Text: as §1, §2

caspase-9 in THP1 cells = type: cell-based, human
RPMI8226 cells [13] = assay: annexin V/propidium iodide apoptosis assay, RPMI8226; type: cell-based, human; settings: RPMI8226, 48 h, 3 µM, annexin V/PI
Text: as §1, §2

## CCCN(C=NC(Cc1ccc(N(CCCl)CCCl)cc1)C(=O)O)CCC (centres unmarked) [DIPR-MEL]
[1]; Homo sapiens, THP-1, 48 h
  IC50: > 30 µM
[2]; Homo sapiens, HL-60, 48 h
  IC50: > 30 µM
[3]; Homo sapiens, RPMI-8226, 48 h
  IC50: > 30 µM

## CCCN(C=NC(Cc1ccc(N(CCCl)CCCl)cc1)C(=O)OCC)CCC (centres unmarked) [EE-DIPR-MEL]
THP1 cells [4]
  DNA damage (tail DNA), THP1: ~ 7%
[1]; Homo sapiens, THP-1, 48 h
  IC50: 0.69 µM
RPMI8226 cells [5]
  DNA damage (tail DNA), RPMI8226: comparable to that of melphalan
[2]; Homo sapiens, HL-60, 48 h
  IC50: 1.05 µM
THP1 cells [6]
  late apoptotic cells, THP1: comparable to that of the unmodified drug
[3]; Homo sapiens, RPMI-8226, 48 h
  IC50: 4.85 ± 0.195 µM
[3]
  IC50: 5.94 µM

## CCOC(=O)C(N)Cc1ccc(N(CCCl)CCCl)cc1 (centres unmarked) [EE-MEL]
THP1 cells [4]
  DNA damage (tail DNA), THP1: ~ 15%
[7]
  IC50: 2.2 ± 0.25 µM
[1]
  IC50: 0.35 µM
[8]
  fold increase of intracellular calcium, HL60, 24 h: approx. 2 fold
RPMI8226 cells [5]
  DNA damage (tail DNA), RPMI8226: ~ 38%
[2]
  IC50: 0.7 µM
[9]
  Caspase 3 activity RPMI8226, 24 h: 656.19 ± 221.7%
[3]
  IC50: 1.17 µM
[10]
  Caspase 3 activity THP1, 24 h: 788.85 ± 83.40%
[11]
  Caspase 3 activity HL-60, 24 h: 1225.64 ± 155.22%

## CCOC(=O)C(Cc1ccc(N(CCCl)CCCl)cc1)N=CN1CCOCC1 (centres unmarked) [EE-MOR-MEL]
THP1 cells [4]
  DNA damage (tail DNA), THP1: ~ 13%
[1]; Homo sapiens, THP-1, 48 h
  IC50: 0.04 µM
[2]; Homo sapiens, HL-60, 48 h
  IC50: 0.32 µM
[3]; Homo sapiens, RPMI-8226, 48 h
  IC50: 3.13 µM
[10]
  Caspase 3 activity THP1, 24 h: 981.93 ± 51.79%
[11]
  Caspase 3 activity HL-60, 24 h: 1127.68 ± 39.24%
[12]
  fold increase of intracellular calcium ions, THP1: approx. 2.8 fold

## CCCN(C=NC(Cc1ccc(N(CCCl)CCCl)cc1)C(=O)OC)CCC (centres unmarked) [EM-DIPR-MEL]
THP1 cells [4]
  DNA damage (tail DNA), THP1: ~ 7%
[1]; Homo sapiens, THP-1, 48 h
  IC50: 0.41 µM
RPMI8226 cells [5]
  DNA damage (tail DNA), RPMI8226: comparable to that of melphalan
[2]; Homo sapiens, HL-60, 48 h
  IC50: 0.85 µM
THP1 cells [6]
  late apoptotic cells, THP1: comparable to that of the unmodified drug
[3]; Homo sapiens, RPMI-8226, 48 h
  IC50: 5.94 ± 0.65 µM
[3]
  IC50: 4.85 µM

## COC(=O)C(Cc1ccc(N(CCCl)CCCl)cc1)N=CN1CCOCC1 (centres unmarked) [EM-MOR-MEL]
THP1 cells [4]
  DNA damage (tail DNA), THP1: ~ 13%
[7]; PBMC, 48 h
  IC50: 6.41 ± 0.85 µM
[1]; Homo sapiens, THP-1, 48 h
  IC50: 0.07 ± 0.004 µM
[2]; Homo sapiens, HL-60, 48 h
  IC50: 0.49 ± 0.098 µM
[3]; Homo sapiens, RPMI-8226, 48 h
  IC50: 3.6 µM

## N[C@@H](Cc1ccc(N(CCCl)CCCl)cc1)C(=O)O [MEL, melphalan, reference compound]
[1]; Homo sapiens, THP-1, 48 h
  IC50: 6.26 µM
HL60 cells
  late apoptotic cells, HL60: ~35%
[2]; Homo sapiens, HL-60, 48 h
  IC50: 3.78 µM
[9]
  Caspase 3 activity RPMI8226, 24 h: 463.75 ± 64.5%
THP1 cells [6]
  late apoptotic cells, THP1: ~17%
caspase-9 in THP1 cells
  Caspase 9 activity THP1, 24 h: 316.5 ± 17.31%
[3]; Homo sapiens, RPMI-8226, 48 h
  IC50: 8.9 µM
[10]
  Caspase 3 activity THP1, 24 h: 429.08 ± 48.10%
RPMI8226 cells [13]
  late apoptotic cells, RPMI8226: approximately 25%
[11]
  Caspase 3 activity HL-60, 24 h: 736.92 ± 105.48%
[12]; control = 100%
  level of intracellular calcium, THP1: 131.27 ± 10.08%

## O=C(O)C(Cc1ccc(N(CCCl)CCCl)cc1)N=CN1CCOCC1 (centres unmarked) [MOR-MEL]
[1]; Homo sapiens, THP-1, 48 h
  IC50: > 30 µM
[2]; Homo sapiens, HL-60, 48 h
  IC50: > 30 µM
[3]; Homo sapiens, RPMI-8226, 48 h
  IC50: > 30 µM
